The values that follow come from patent US5318967A, “2,3,3a,4,5,9b-hexahydro-1H-benzo[e]indole derivatives” (priority 1991, dated 1994).

In the experiment the target is acetylcholine esterase (Homo sapiens, UniProt P22303). As to the kind of experiment: biochemical. The conditions noted are these: read-out: IC 50 for acetylcholine esterase inhibition. An excerpt:
The determination of the acetylcholine esterase inhibition was effected according to the method of Ellmann et al., Biochem. Pharmacol. 7 (1961) 88, and/or according to the method of Johnson et al., Analytical Biochemistry 64 (1975), 229.

Sequence of acetylcholine esterase (P22303 32-614): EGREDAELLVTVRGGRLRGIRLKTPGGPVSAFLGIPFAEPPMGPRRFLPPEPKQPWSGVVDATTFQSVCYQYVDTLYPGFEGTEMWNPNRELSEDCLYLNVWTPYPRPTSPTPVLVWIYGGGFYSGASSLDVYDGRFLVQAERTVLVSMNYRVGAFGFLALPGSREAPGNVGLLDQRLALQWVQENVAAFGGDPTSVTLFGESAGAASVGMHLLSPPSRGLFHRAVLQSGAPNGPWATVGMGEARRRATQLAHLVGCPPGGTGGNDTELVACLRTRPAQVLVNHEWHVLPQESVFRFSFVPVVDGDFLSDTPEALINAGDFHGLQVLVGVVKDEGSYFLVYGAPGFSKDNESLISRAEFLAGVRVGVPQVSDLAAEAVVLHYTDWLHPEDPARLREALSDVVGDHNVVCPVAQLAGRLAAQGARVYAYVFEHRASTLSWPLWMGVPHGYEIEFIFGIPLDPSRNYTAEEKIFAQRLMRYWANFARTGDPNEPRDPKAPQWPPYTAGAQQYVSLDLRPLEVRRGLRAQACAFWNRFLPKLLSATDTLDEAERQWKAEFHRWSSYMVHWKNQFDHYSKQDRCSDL

On to `CN(C)C(=O)Oc1cccc2c1CC[C@H]1[C@@H]2CCN1CCC1CCCC1` (racemic) [rac-3-(2-cyclopentylethyl)-cis-2,3,3a,4,5,9b-hexahydro-1H-benzo[e]indol-6-yl dimethylcarbamate], for which the IC50 worked out at 30 nM.
As for `CN(C)C(=O)Oc1cccc2c1CC[C@H]1[C@@H]2CCN1CCN1CCCCC1` (racemic) [rac-3-(2-piperidin-1-yl-ethyl)-cis-2,3,3a,4,5,9b-hexahydro-1H-benzo[e]indol-6-yl dimethylcarbamate], the figure is 31 nM; as for `CN(C)C(=O)Oc1cccc2c1CC[C@H]1[C@@H]2CCN1CCCC(=O)c1ccccc1` (racemic) [rac-3-(3-benzoyl-propyl)-cis-2,3,3a,4,5,9b-hexahydro-1H-benzo[e]indol-6-yl dimethylcarbamate], 8.3 nM.
With `CN(C)C(=O)Oc1cccc2c1CC[C@H]1[C@@H]2CCN1CCCC1CCCCC1` (racemic) [rac-3-(3-cyclohexylpropyl)-cis-2,3,3a,4,5,9b-hexahydro-1H-benzo[e]indol-6-yl dimethylcarbamate] the figure was 19 nM.
With `CC(C)CCN1CC[C@@H]2c3cccc(OC(=O)N(C)C)c3CC[C@@H]21` (racemic) [rac-3-(3-methylbutyl)-cis-2,3,3a,4,5,9b-hexahydro-1H-benzo[e]indol-6-yl dimethylcarbamate] the figure was 67 nM; with `CN(C)C(=O)Oc1cccc2c1CC[C@H]1[C@@H]2CCN1CCCN1CCOCC1` (racemic) [rac-3-(3-morpholin-4-yl-propyl)-cis-2,3,3a,4,5,9b-hexahydro-1H-benzo[e]indol-6-yl dimethylcarbamate], 63 nM.
Turning to `CN(C)C(=O)Oc1cccc2c1CC[C@H]1[C@@H]2CCN1CCCc1ccccc1` (racemic) [rac-3-(3-phenylpropyl)-cis-2,3,3a,4,5,9b-hexahydro-1H-benzo[e]indol-6-yl dimethylcarbamate], the IC50 stood at 36 nM.
In the case of `CN(C)C(=O)Oc1cccc2c1CC[C@H]1[C@@H]2CCN1CCCCC(=O)c1ccccc1` (racemic) [rac-3-(4-benzoyl-butyl)-cis-2,3,3a,4,5,9b-hexahydro-1H-benzo[e]indol-6-yl dimethylcarbamate], the IC50 was found to be 612 nM.
On to `CN(C)C(=O)Oc1cccc2c1CC[C@H]1[C@@H]2CCN1CCCC(=O)c1ccc(F)cc1` (racemic) [rac-3-[3-(4-fluoro-benzoyl)-propyl]-cis-2,3,3a,4,5,9b-hexahydro-1H-benzo[e]indol-6-yl dimethylcarbamate], for which the IC50 worked out at 6.8 nM.
As to `CN(C)C(=O)Oc1cccc2c1CC[C@H]1[C@@H]2CCN1CCCCN1Cc2ccccc2C1=O` (racemic) [rac-3-[4-(1-oxo-isoindolin-2-yl)-butyl]-cis-2,3,3a,4,5,9b-hexahydro-1H-benzo[e]indol-6-yl dimethylcarbamate], the IC50 amounted to 8.6 nM.
As for `COc1ccc(C(=O)CCCCN2CC[C@@H]3c4cccc(OC(=O)N(C)C)c4CC[C@@H]32)cc1OC` (racemic) [rac-3-[4-(3,4-Dimethoxy-benzoyl)-butyl]-cis-2,3,3a,4,5,9b-hexahydro-1H-benzo[e]indol-6-yl dimethylcarbamate], the figure is 1.4 nM.
With `CN(C)C(=O)Oc1cccc2c1CC[C@H]1[C@@H]2CCN1CCCCN1C(=O)CC(C)(C)CC1=O` (racemic) [rac-3-[4-(4,4-dimethyl-2,6-dioxo-piperidin-1-yl)-butyl]-cis-2,3,3a,4,5,9b-hexahydro-1H-benzo[e]indol-6-yl dimethylcarbamate] the figure was 13 nM; with `CN(C)C(=O)Oc1cccc2c1CC[C@H]1[C@@H]2CCN1CCCCCN1C(=O)c2ccccc2C1=O` (racemic) [rac-3-[5-(1,3-dioxo-isoindolin-2-yl)-pentyl]-cis-2,3,3a,4,5,9b-hexahydro-1H-benzo[e]indol-6-yl dimethylcarbamate], 2.7 nM.
Turning to `CN(C)C(=O)Oc1cccc2c1CC[C@H]1[C@@H]2CCN1CCCCCN1Cc2ccccc2C1=O` (racemic) [rac-3-[5-(1-oxo-isoindolin-2-yl)-pentyl]-cis-2,3,3a,4,5,9b-hexahydro-1H-benzo[e]indol-6-yl dimethylcarbamate], the IC50 was 4.5 nM.
`COc1ccc(C(=O)CCCCCN2CC[C@@H]3c4cccc(OC(=O)N(C)C)c4CC[C@@H]32)cc1OC` (racemic) [rac-3-[5-(3,4-dimethoxy-benzoyl)-pentyl]-cis-2,3,3a,4,5,9b-hexahydro-1H-benzo[e]indol-6-yl dimethylcarbamate]: the IC50 came to 1.2 nM.
As for `CN(C)C(=O)Oc1cccc2c1CC[C@H]1[C@@H]2CCN1CCCCCN1C(=O)CC(C)(C)CC1=O` (racemic) [rac-3-[5-(4,4-dimethyl-2,6-dioxo-piperidin-1-yl)-pentyl]-cis-2,3,3a,4,5,9b-hexahydro-1H-benzo[e]indol-6-yl dimethylcarbamate], the figure is 11 nM; as for `CN(C)C(=O)Oc1cccc2c1CC[C@H]1[C@@H]2CCN1CCCCCCN1Cc2ccccc2C1=O` (racemic) [rac-3-[6-(1-oxo-isoindolin-2-yl)-hexyl]-cis-2,3,3a,4,5,9b-hexahydro-1H-benzo[e]indol-6-yl dimethylcarbamate], 2.9 nM; as for `CN(C)C(=O)Oc1cccc2c1CC[C@H]1[C@@H]2CCN1CCCCCCN1C(=O)CC(C)(C)CC1=O` (racemic) [rac-3-[6-(4,4-dimethyl-2,6-dioxo-piperidin-1-yl)-hexyl]-cis-2,3,3a,4,5,9b-hexahydro-1H-benzo[e]indol-6-yl dimethylcarbamate], 8 nM.
As for `CN(C)C(=O)Oc1cccc2c1CC[C@H]1[C@@H]2CCN1CC1CCCCC1` (racemic) [rac-3-cyclohexylmethyl-cis-2,3,3a,4,5,9b-hexahydro-1H-benzo[e]indol-6-yl dimethylcarbamate], the IC50 came out at 36 nM.
As for `CN(C)C(=O)Oc1cccc2c1CC[C@H]1[C@@H]2CCN1CCc1ccccc1` (racemic) [rac-3-phenethyl-cis-2,3,3a,4,5,9b-hexahydro-1H-benzo[e]indol-6-yl dimethylcarbamate], the figure is 47 nM; as for `CCCN1CC[C@@H]2c3cccc(OC(=O)N(C)C)c3CC[C@@H]21` (racemic) [rac-3-propyl-cis-2,3,3a,4,5,9b-hexahydro-1H-benzo[e]indol-6-yl dimethylcarbamate], 40 nM; as for `CCCCNC(=O)Oc1cccc2c1CC[C@H]1[C@@H]2CCN1CCC1CCCCC1` (racemic) [rac-cis-3-(2-cyclohexylethyl)-2,3,3a,4,5,9b-hexahydro-1H-benzo[e]indol-6-yl butylcarbamate], 793 nM.
As for `CN(C)C(=O)Oc1cccc2c1CC[C@H]1[C@@H]2CCN1CCCC1CCCC1` (racemic) [rac-cis-3-(3-cyclopentyl-propyl)-2,3,3a,4,5,9b-hexahydro-1H-benzo[e]indol-6-yl dimethylcarbamate], the figure is 14 nM; as for `CN(C)C(=O)Oc1cccc2c1CC[C@H]1[C@@H]2CCN1CCCCNC(=O)c1ccccc1` (racemic) [rac-cis-3-(4-benzoylaminobutyl)-2,3,3a,4,5,9b-hexahydro-1H-benzo[e]indol-6-yl dimethylcarbamate], 16 nM; as for `CN(C)C(=O)Oc1cccc2c1CC[C@H]1[C@@H]2CCN1CCCCC1CCCCC1` (racemic) [rac-cis-3-(4-cyclohexyl-butyl)-2,3,3a,4,5,9b-hexahydro-1H-benzo[e]indol-6-yl dimethylcarbamate], 35 nM.
With `CN(C)C(=O)Oc1cccc2c1CC[C@H]1[C@@H]2CCN1CCCCCNC(=O)c1ccc(S(C)(=O)=O)cc1` (racemic) [rac-cis-3-[5-(4-methanesulfonylbenzoylamino)pentyl]-2,3,3a,4,5,9b-hexahydro-1H-benzo[e]indol-6-yl dimethylcarbamate] the figure was 5.1 nM.
`CN(C)C(=O)Oc1cccc2c1CC[C@H]1[C@@H]2CCN1C1CCCC1` (racemic) [rac-cis-3-cyclopentyl-2,3,3a,4,5,9b-hexahydro-1H-benzo[e]indol-6-yl dimethylcarbamate]: the IC50 stood at 95 nM.
On to `CN(C)C(=O)Oc1cccc2c1CC[C@@H]1[C@H]2CCN1CCCCN` (relative stereo) [rac-3-(4-aminobutyl)-2,3,3a,4,5,9b-hexahydro-1H-cis-benzo[e]indol-6-yl dimethylcarbamate], for which the IC50 was 267 nM.
As for `CN(C)C(=O)Oc1cccc2c1CC[C@@H]1[C@H]2CCN1CCCCCN` (relative stereo) [rac-3-(5-aminopentyl)-2,3,3a,4,5,9b-hexahydro-1H-cis-benzo[e]indol-6-yl dimethylcarbamate], the figure is 111 nM; as for `CN(C)C(=O)Oc1cccc2c1CC[C@@H]1[C@H]2CCN1CCCCCNC(=O)c1ccccc1` (relative stereo) [rac-3-(5-benzoylaminopentyl)-2,3,3a,4,5,9b-hexahydro-1H-cis-benzo[e]indol-6-yl dimethylcarbamate], 15.2 nM.
With `CN(C)C(=O)Oc1cccc2c1CC[C@@H]1[C@H]2CCN1CCCCCCN` (relative stereo) [rac-3-(6-aminohexyl)-2,3,3a,4,5,9b-hexahydro-1H-cis-benzo[e]indol-6-yl dimethylcarbamate] the figure was 8 nM; with `CN(C)C(=O)Oc1cccc2c1CC[C@@H]1[C@H]2CCN1CCCCCCNC(=O)c1ccccc1` (relative stereo) [rac-3-(6-benzoylamino-hexyl)-2,3,3a,4,5,9b-hexahydro-1H-cis-benzo[e]indol-6-yl-dimethylcarbamate], 11 nM.
As for `CN(C)C(=O)Oc1cccc2c1CC[C@@H]1[C@H]2CCN1CCCCCN1C(=O)[C@H]2CCCC[C@H]2C1=O` (relative stereo) [rac-3-[5-(1,3-dioxo-octahydro-cis-isoindol-2-yl)pentyl]-2,3,3a,4,5,9b-hexahydro-1H-cis-benzo[e]indol-6-yl dimethylcarbamate], the figure is 7.8 nM; as for `CN(C)C(=O)Oc1cccc2c1CC[C@@H]1[C@H]2CCN1CCCCCCNC(=O)c1ccc(S(C)(=O)=O)cc1` (relative stereo) [rac-3-[6-(4-methanesulfonyl-benzoylamino)hexyl]-2,3,3a,4,5,9b-hexahydro-1H-cis-benzo[e]indol-6-yl-dimethylcarbamate], 5.6 nM.
